The source of these data is patent US6670363B1, “Azole compounds as therapeutic agents for fungal infections” (Ranbaxy Laboratories Limited, priority 2000, dated 2003).

Values after ≈ are worked out from the molar mass of the structure shown. A value given as a limit tells only on which side of the number the result lay.

Holding throughout (type): cell-based
Experiment [1] concerns Histoplasma capsulatum.
Experiment [2] concerns Candida. Kind of experiment: In vitro MIC, NCCLS M27A, Candida species. Also on record: MIC, Candida albicans 1.549 / MIC, Candida albicans Y-01-19 / MIC, C. krusei 766-1 / MIC, C. krusei Q. C / MIC, Candida tropicalis ATCC / MIC, C. glabrata 90030: unit not given beside the values; MIC, Candida albicans A 26 / MIC, C. parapsilosis Q. C.: unit not given here. Particulars: for MIC, C. glabrata 90030: C. glabrata strain 90030; for MIC, C. krusei 766-1: C. krusei strain 766-1; for MIC, C. krusei Q. C: C. krusei strain Q. C; for MIC, C. parapsilosis Q. C.: C. parapsilosis strain Q. C.; for MIC, Candida albicans 1.549: Candida albicans strain 1.549; for MIC, Candida albicans A 26: Candida albicans strain A 26; for MIC, Candida albicans Y-01-19: Candida albicans strain Y-01-19.

The test system of experiment [3] is A. fumigatus s 1008. Kind of experiment: In vitro MIC, NCCLS M38P broth method (RPMI 1640/MOPS pH7), Aspergillus fumigatus. Particulars: A. fumigatus strain 1008.
Experiment [4] has as its system Cryptococcus neoformans. Kind of experiment: In vitro MIC, NCCLS M27A, Cryptococcus neoformans. Also on record: MIC, C. neoformans I: unit not given beside the values; MIC, C. neoformans M 106: unit not given here. Particulars: for MIC, C. neoformans I: C. neoformans strain I; for MIC, C. neoformans M 106: C. neoformans strain M 106.

As for `C[C@@H](n1ncn(-c2ccc(N3CCN(c4ccc(Cl)cc4)CC3)cc2)c1=O)[C@](O)(Cn1cncn1)c1ccc(F)cc1F` [Compound 1, 2-{[1R2R/1S2S]-2-(2,4-Difluorophenyl)-2-hydroxy-1-methyl-3-(1H-1,2,4-triazol-1-yl)propyl}-4-{4-[4-(4-chlorophenyl)-1-piperazinyl]phenyl}-3-(2H,4H)-1,2,4-triazolone], in experiment [1], the MIC, H. capsulatum worked out at 0.06 µg/mL (≈ 0.0988 µM). In addition, in experiment [2], the “MIC, C. glabrata 90030” value stood at 0.25; the “MIC, C. krusei 766-1” value amounted to 0.25; the “MIC, C. krusei Q. C” value was determined as 0.12; the “MIC, C. parapsilosis Q. C.” value is on record as below 0.03. Further, in experiment [2], the “MIC, Candida albicans 1.549” value is reported as 0.12; the “MIC, Candida albicans A 26” value is given as below 0.03; the “MIC, Candida albicans Y-01-19” value is 0.12; the “MIC, Candida tropicalis ATCC” value is on record as below 0.03. The “MIC, A. fumigatus 1008” value in experiment [3] was determined as 0.12. Further, in experiment [4], the “MIC, C. neoformans I” value is listed as below 0.03 and the “MIC, C. neoformans M 106” value is listed as below 0.03.
Compound `C[C@@H](n1ncn(-c2ccc(N3CCN(c4ccc(Cl)cc4)CC3)cc2)c1=O)[C@@](O)(Cn1cncn1)c1ccc(F)cc1F` [Compound 2, 2-{[1R2S/1S2R]-2-(2,4-Difluorophenyl)-2-hydroxy-1-methyl-3-(1H-1,2,4-triazol-1-yl)propyl}-4-{4-[4-(4-chlorophenyl)-1-piperazinyl]phenyl}-3-(2H,4H)-1,2,4-triazolone] returned an MIC, H. capsulatum in experiment [1] below 0.03 µg/mL. Further, in experiment [2], the “MIC, C. glabrata 90030” value is reported as 0.50; the “MIC, C. krusei 766-1” value was found to be 2.00; the “MIC, C. krusei Q. C” value is given as 1.00; the “MIC, C. parapsilosis Q. C.” value is below 0.03. In experiment [2], the “MIC, Candida albicans 1.549” value is 1.00; the “MIC, Candida albicans A 26” value is on record as below 0.03; the “MIC, Candida albicans Y-01-19” value amounted to 0.25; the “MIC, Candida tropicalis ATCC” value is recorded as below 0.03. Moreover, the “MIC, A. fumigatus 1008” value in experiment [3] is given as above 16. For the same compound, in experiment [4], the “MIC, C. neoformans I” value is listed as below 0.03 and the “MIC, C. neoformans M 106” value is below 0.03.
In experiment [1], `C[C@@H](n1ncn(-c2ccc(N3CCN(c4ccc([N+](=O)[O-])cc4[N+](=O)[O-])CC3)cc2)c1=O)[C@](O)(Cn1cncn1)c1ccc(F)cc1F` [Compound 3, 2-{[1R2R/1S2S]-2-(2,4-Difluorophenyl)-2-hydroxy-1-methyl-3-(1H-1,2,4-triazol-1-yl)propyl}-4-{4-[4-(2,4-dinitrophenyl)-1-piperazinyl]phenyl}-3-(2H,4H)-1,2,4-triazolone] returned an MIC, H. capsulatum below 0.03 µg/mL. In experiment [2], the “MIC, C. glabrata 90030” value is 0.25; the “MIC, C. krusei 766-1” value came out at 1.00; the “MIC, C. krusei Q. C” value was found to be 0.50; the “MIC, C. parapsilosis Q. C.” value is below 0.03. Also, in experiment [2], the “MIC, Candida albicans 1.549” value came to 0.12; the “MIC, Candida albicans A 26” value is below 0.03; the “MIC, Candida albicans Y-01-19” value amounted to 0.50; the “MIC, Candida tropicalis ATCC” value is listed as below 0.03. In experiment [3], the “MIC, A. fumigatus 1008” value came out at 0.25. Besides, in experiment [4], the “MIC, C. neoformans I” value is recorded as below 0.03 and the “MIC, C. neoformans M 106” value was below 0.03.
In turn, `C[C@@H](n1ncn(-c2ccc(N3CCN(c4ccc([N+](=O)[O-])cc4[N+](=O)[O-])CC3)cc2)c1=O)[C@@](O)(Cn1cncn1)c1ccc(F)cc1F` [Compound 4, 2-{[1R2S/1S2R]-2-(2,4-Difluorophenyl)-2-hydroxy-1-methyl-3-(1H-1,2,4-triazol-1-yl)propyl}-4-{4-[4-(2,4-dinitrophenyl)-1-piperazinyl]phenyl}-3-(2H,4H)-1,2,4-triazolone] yielded an MIC, H. capsulatum in experiment [1] of 0.5 µg/mL (≈ 0.755 µM). Moreover, in experiment [2], the “MIC, C. glabrata 90030” value is on record as 2.00; the “MIC, C. krusei 766-1” value is above 16; the “MIC, C. krusei Q. C” value is listed as above 16; the “MIC, C. parapsilosis Q. C.” value stood at 0.25. Further, in experiment [2], the “MIC, Candida albicans 1.549” value is reported as 4.00; the “MIC, Candida albicans A 26” value is given as below 0.03; the “MIC, Candida albicans Y-01-19” value is recorded as above 16; the “MIC, Candida tropicalis ATCC” value was below 0.03. For the same compound, the “MIC, A. fumigatus 1008” value in experiment [3] is on record as above 16. In experiment [4], the “MIC, C. neoformans I” value was found to be 0.25 and the “MIC, C. neoformans M 106” value stood at 1.00.
With `C[C@@H](n1ncn(-c2ccc(N3CCN(c4ccccc4)CC3)cc2)c1=O)[C@](O)(Cn1cncn1)c1ccc(F)cc1F` [Compound 5], in experiment [1], the MIC, H. capsulatum was below 0.03 µg/mL. Further, in experiment [2], the “MIC, C. glabrata 90030” value turned out to be 1.00; the “MIC, C. krusei 766-1” value stood at 0.50; the “MIC, C. krusei Q. C” value was 0.12; the “MIC, C. parapsilosis Q. C.” value was below 0.03. Moreover, in experiment [2], the “MIC, Candida albicans 1.549” value came out at 2.00; the “MIC, Candida albicans A 26” value was below 0.03; the “MIC, Candida albicans Y-01-19” value came to 0.12; the “MIC, Candida tropicalis ATCC” value is recorded as below 0.03. Further, the “MIC, A. fumigatus 1008” value in experiment [3] came to 0.50. Besides, in experiment [4], the “MIC, C. neoformans I” value is recorded as below 0.03 and the “MIC, C. neoformans M 106” value is given as below 0.03.
`C[C@@H](n1ncn(-c2ccc(N3CCN(c4ccccc4)CC3)cc2)c1=O)[C@@](O)(Cn1cncn1)c1ccc(F)cc1F` [Compound 6, 2-{[1R2S/1S2R]-2-(2,4-Difluorophenyl)-2-hydroxy-1-methyl-3-(1H-1,2,4-triazol-1-yl)propyl}-4-[4-(1-phenylpiperazinyl)phenyl]-3-(2H,4H)-1,2,4-triazolone] gave an MIC, H. capsulatum in experiment [1] of 0.12 µg/mL (≈ 0.21 µM). Further, in experiment [2], the “MIC, C. glabrata 90030” value is above 16; the “MIC, C. krusei 766-1” value is reported as above 16; the “MIC, C. krusei Q. C” value worked out at 16.0; the “MIC, C. parapsilosis Q. C.” value stood at 0.125. In experiment [2], the “MIC, Candida albicans 1.549” value came to 2.00; the “MIC, Candida albicans A 26” value is on record as below 0.03; the “MIC, Candida albicans Y-01-19” value is listed as 8.00; the “MIC, Candida tropicalis ATCC” value is below 0.03. Moreover, the “MIC, A. fumigatus 1008” value in experiment [3] is reported as above 16. In experiment [4], the “MIC, C. neoformans I” value was 0.25 and the “MIC, C. neoformans M 106” value is 2.00.
As to `Cc1nn([C@H](C)[C@@](O)(Cn2cncn2)c2ccc(F)cc2F)c(=O)n1-c1ccc(N2CCN(c3ccc(Cl)cc3Cl)CC2)cc1` [Compound 34, 2-{[1R2S/1S2R]-2-(2,4-Difluorophenyl)-2-hydroxy-1-methyl-3-(1H-1,2,4-triazol-1-yl)propyl}-4-{4-[4-(2,4-dichlorophenyl)-1-piperazinyl]phenyl}-3-(2H,4H)-5-methyl-1,2,4-triazolone], in experiment [1], the MIC, H. capsulatum amounted to 0.12 µg/mL (≈ 0.183 µM). Further, in experiment [2], the “MIC, C. glabrata 90030” value was found to be 0.50; the “MIC, C. krusei 766-1” value came out at 2.00; the “MIC, C. krusei Q. C” value is 1.00; the “MIC, C. parapsilosis Q. C.” value is recorded as 0.25. In addition, in experiment [2], the “MIC, Candida albicans 1.549” value stood at 1.00; the “MIC, Candida albicans A 26” value is on record as below 0.03; the “MIC, Candida albicans Y-01-19” value was 1.00; the “MIC, Candida tropicalis ATCC” value is below 0.03. Moreover, in experiment [4], the “MIC, C. neoformans I” value was 0.25 and the “MIC, C. neoformans M 106” value is below 0.03.
